Legend:
KDR (VEGFR2) = target: T1, KDR (VEGFR2) (Homo sapiens, UniProt P35968); experiment: Inhibition specificity, KDR; assay type: biochemical; details: 5000 nM, average of two tests; for inhibition at 5 µM: read-out: Average Inhibition Rate (%) KDR
T1 construct: purchased Invitrogen

KIT = target: T2, KIT (Homo sapiens, UniProt P10721); experiment: Inhibition specificity, KIT; assay type: biochemical; details: 5000 nM, average of two tests; read-out: Average Inhibition Rate (%) KIT
T2 construct: purchased INVITROGEN

MAPK3 = target: T3, MAPK3 (Homo sapiens, UniProt P27361); experiment: Inhibition specificity, MAPK3; assay type: biochemical; details: 5000 nM, average of two tests; read-out: Average Inhibition Rate (%) MAPK3
T3 construct: purchased INVITROGEN

PKC-α = target: T4, PKC-α (Homo sapiens, UniProt P17252); experiment: Inhibition specificity, PKC-α; assay type: biochemical; details: 5000 nM, average of two tests; read-out: Average Inhibition Rate (%) PKC-α
T4 construct: purchased INVITROGEN

JAK2 = target: T5, JAK2 (Homo sapiens, UniProt O60674); experiment: Inhibition specificity, JAK2; assay type: biochemical; details: 5000 nM, average of two tests; read-out: Average Inhibition Rate (%) JAK2
T5 construct: purchased INVITROGEN

VEGFR2 (KDR) = target: T6, VEGFR2 (KDR) (Homo sapiens, UniProt P35968); experiment: Kinase inhibition dosage effect, KDR; assay type: biochemical; details: for IC50: [ATP] 80 μM, 3 hr; for Hill KDR: dose-effect curve fit
T6 construct: purchased Invitrogen

CHEK1 = target: T7, CHEK1 (Homo sapiens, UniProt O14757); experiment: Inhibition specificity, CHEK1; assay type: biochemical; details: 5000 nM, average of two tests; read-out: Average Inhibition Rate (%) CHEK1
T7 construct: purchased CARNA

DMPK = target: T8, DMPK (Homo sapiens, UniProt Q09013); experiment: Inhibition specificity, DMPK; assay type: biochemical; details: 5000 nM, average of two tests; read-out: Average Inhibition Rate (%) DMPK
T8 construct: purchased INVITROGEN

MEK1 = target: T9, MEK1 (Homo sapiens, UniProt Q02750); experiment: Inhibition specificity, MEK1; assay type: biochemical; details: 5000 nM, average of two tests; read-out: Average Inhibition Rate (%) MEK1
T9 construct: purchased UPSTATE

MET = target: T10, MET (Homo sapiens, UniProt P08581); experiment: Inhibition specificity, MET; assay type: biochemical; details: 5000 nM, average of two tests; read-out: Average Inhibition Rate (%) MET
T10 construct: purchased INVITROGEN

SRC = target: T11, SRC (Homo sapiens, UniProt P12931); experiment: Inhibition specificity, SRC; assay type: biochemical; details: 5000 nM, average of two tests; read-out: Average Inhibition Rate (%) SRC
T11 construct: purchased INVITROGEN

AURORA-B = target: T12, AURORA-B (Homo sapiens, UniProt Q96GD4); experiment: Inhibition specificity, AURORA-B; assay type: biochemical; details: 5000 nM, average of two tests; read-out: Average Inhibition Rate (%) AURORA-B
T12 construct: purchased CARNA

SYK = target: T13, SYK (Homo sapiens, UniProt P43405); experiment: Inhibition specificity, SYK; assay type: biochemical; details: 5000 nM, average of two tests; read-out: Average Inhibition Rate (%) SYK
T13 construct: purchased BPS

CDK2 = target: T14, CDK2 (Homo sapiens, UniProt P24941); experiment: Inhibition specificity, CDK2; assay type: biochemical; details: 5000 nM, average of two tests; read-out: Average Inhibition Rate (%) CDK2
T14 construct: purchased UPSTATE

ROCK1 = target: T15, ROCK1 (Homo sapiens, UniProt Q13464); experiment: Inhibition specificity, ROCK1; assay type: biochemical; details: 5000 nM, average of two tests; read-out: Average Inhibition Rate (%) ROCK1
T15 construct: purchased CARNA

EGFR = EGFR (Homo sapiens, UniProt P00533); experiment: Inhibition specificity, EGFR; assay type: biochemical; details: 5000 nM, average of two tests; read-out: Average Inhibition Rate (%) EGFR
corneal angiogenesis = experiment: Rabbit corneal chemical burn model; assay type: in vivo, white rabbits; details: 100 uM subconjunctival injection then drops twice a day, 7 days
Protocol: This test tested in total 5 white rabbits who were 5-6 month old. After narcotizing, in the center of the cornea, the right eye was treated with a 6 mm diameter of round filter paper which was soaked with 0.1M NaOH, induced for 3 min to produce chemical burn modeling.

[1] = test system: vessel development of the FLK1-GFP transgenic danio rerio; experiment: Inhibition test on vascular development of Danio rerio; assay type: in vivo; details: for inhibition at 0.1 µM / inhibition at 1 µM / inhibition at 5 µM / inhibition at 10 µM / inhibition at 20 µM / inhibition at 40 µM / inhibition at 100 µM: Danio rerio, after 24 hours, n = 5, read-out: inhibition rate on the development of vertebral vessel; for inhibition at 0.1 µM: 100 nM; for inhibition effect on the vessel development of the danio rerio (in words): Table 1 and FIG. 7
Protocol: Female fish can spawn 200-300 […], and the fertilization and embryonic development processes are conducted in vitro. They can grow up within 24 hours, and the embryo is transparent, which is suitable for observing the change of intracorporal organs and tissues. These characteristics make the danio rerio become to be one of the five fish laboratory animals accepted by the international organization for standardization. Currently, the danio rerio is widely used in human disease studies, especially used in cardiovascular system studies. The danio rerio can be used for screening the influence of small molecular compounds on angiogenesis. Experimental Method: This experiment uses FLK1-GFP transgenic danio rerio as an animal model which is generally used for screening the influence of compounds on angiogenesis. Vessel can be in vivo observed under fluorescence microscope (Suk-Won Jin, 2005, Development). The selected embryo of the postnatal FLK1-GFP transgenic danio rerio was placed into a culture dish and incubated for 3-5 days in an incubator at 28° C. […] Examine the developmental condition of the vertebral vessel after 24 hours and take photo by use of the fluorescence microscope.

AKT2 = target: T16, AKT2 (Homo sapiens, UniProt P31751); experiment: Inhibition specificity, AKT2; assay type: biochemical; details: 5000 nM, average of two tests; read-out: Average Inhibition Rate (%) AKT2
T16 construct: purchased INVITROGEN

PDGFR-β = target: T17, PDGFR-β (Homo sapiens, UniProt P09619); experiment: Inhibition specificity, PDGFR-β; assay type: biochemical; details: 5000 nM, average of two tests; read-out: Average Inhibition Rate (%) PDGFR-β
T17 construct: purchased Upstate

BRAF = target: T18, BRAF (Homo sapiens, UniProt P15056); experiment: Inhibition specificity, BRAF; assay type: biochemical; details: 5000 nM, average of two tests; read-out: Average Inhibition Rate (%) BRAF
T18 construct: purchased UPSTATE

T6 sequence (P35968 20-1356, species assumed): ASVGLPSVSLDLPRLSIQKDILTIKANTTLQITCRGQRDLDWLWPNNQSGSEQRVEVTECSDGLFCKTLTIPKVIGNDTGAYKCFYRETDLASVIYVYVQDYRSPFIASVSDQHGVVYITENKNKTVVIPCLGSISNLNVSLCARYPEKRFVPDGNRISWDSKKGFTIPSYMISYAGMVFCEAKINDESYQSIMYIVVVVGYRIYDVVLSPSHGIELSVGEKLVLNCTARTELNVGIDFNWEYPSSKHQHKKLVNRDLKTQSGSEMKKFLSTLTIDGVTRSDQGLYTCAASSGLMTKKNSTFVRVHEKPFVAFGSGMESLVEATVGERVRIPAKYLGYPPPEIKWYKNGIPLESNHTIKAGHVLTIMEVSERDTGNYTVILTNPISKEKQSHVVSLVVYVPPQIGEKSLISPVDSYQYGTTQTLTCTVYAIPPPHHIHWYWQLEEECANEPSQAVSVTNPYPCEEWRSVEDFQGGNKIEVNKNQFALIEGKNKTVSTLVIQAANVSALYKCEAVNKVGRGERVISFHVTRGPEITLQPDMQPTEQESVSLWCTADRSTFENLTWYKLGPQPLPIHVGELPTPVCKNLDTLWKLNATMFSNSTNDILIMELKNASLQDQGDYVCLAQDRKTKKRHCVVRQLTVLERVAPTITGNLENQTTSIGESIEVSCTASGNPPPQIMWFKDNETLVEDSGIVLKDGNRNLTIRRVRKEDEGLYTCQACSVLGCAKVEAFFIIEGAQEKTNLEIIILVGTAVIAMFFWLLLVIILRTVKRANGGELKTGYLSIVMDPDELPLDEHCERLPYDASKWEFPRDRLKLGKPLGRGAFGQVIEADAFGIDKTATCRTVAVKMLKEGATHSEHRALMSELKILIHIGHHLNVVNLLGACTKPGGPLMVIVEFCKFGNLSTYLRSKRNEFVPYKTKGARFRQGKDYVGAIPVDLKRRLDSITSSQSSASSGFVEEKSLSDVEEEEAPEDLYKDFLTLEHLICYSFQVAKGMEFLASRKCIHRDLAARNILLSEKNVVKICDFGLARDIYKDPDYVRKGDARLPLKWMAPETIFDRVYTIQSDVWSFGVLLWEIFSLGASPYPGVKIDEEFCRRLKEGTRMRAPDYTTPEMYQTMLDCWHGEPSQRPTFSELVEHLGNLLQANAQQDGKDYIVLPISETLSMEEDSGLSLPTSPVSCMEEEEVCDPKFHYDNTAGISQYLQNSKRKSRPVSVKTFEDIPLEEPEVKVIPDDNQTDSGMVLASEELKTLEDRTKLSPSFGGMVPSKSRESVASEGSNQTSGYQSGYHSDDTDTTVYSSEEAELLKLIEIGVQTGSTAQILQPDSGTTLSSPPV
T1 sequence (P35968 20-1356, species assumed): as above
Chain of EGFR (P00533 25-1210, species assumed): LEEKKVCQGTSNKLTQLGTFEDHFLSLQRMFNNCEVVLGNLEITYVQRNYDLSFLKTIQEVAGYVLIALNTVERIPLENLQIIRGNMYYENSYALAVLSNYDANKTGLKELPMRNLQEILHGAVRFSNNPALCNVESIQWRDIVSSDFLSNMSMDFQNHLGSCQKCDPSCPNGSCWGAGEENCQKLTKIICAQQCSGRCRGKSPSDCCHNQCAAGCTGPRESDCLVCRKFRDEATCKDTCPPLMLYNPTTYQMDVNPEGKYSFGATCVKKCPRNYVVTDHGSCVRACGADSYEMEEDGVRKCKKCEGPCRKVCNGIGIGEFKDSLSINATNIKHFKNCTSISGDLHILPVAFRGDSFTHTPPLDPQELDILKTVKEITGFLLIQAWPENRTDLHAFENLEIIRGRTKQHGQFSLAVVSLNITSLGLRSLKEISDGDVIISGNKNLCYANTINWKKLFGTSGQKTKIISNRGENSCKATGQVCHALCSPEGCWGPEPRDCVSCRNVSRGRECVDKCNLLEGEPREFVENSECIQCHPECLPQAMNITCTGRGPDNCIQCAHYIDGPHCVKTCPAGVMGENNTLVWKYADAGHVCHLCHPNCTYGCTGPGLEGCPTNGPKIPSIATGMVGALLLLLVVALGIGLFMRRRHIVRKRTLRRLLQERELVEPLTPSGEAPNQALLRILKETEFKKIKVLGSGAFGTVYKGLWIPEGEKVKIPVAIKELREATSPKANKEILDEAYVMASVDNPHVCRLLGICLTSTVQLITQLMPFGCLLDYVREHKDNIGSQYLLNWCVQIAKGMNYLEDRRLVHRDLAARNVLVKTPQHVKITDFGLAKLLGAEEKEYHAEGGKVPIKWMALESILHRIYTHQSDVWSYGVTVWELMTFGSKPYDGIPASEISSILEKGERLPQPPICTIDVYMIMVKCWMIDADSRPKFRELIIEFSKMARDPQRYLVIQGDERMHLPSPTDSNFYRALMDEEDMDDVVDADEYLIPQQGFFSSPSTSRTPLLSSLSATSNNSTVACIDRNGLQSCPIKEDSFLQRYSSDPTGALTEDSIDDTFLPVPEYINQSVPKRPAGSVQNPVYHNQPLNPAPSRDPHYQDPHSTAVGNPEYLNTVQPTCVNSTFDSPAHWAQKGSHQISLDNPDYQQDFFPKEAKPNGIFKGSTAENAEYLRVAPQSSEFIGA
T2 sequence (P10721 26-976, species assumed): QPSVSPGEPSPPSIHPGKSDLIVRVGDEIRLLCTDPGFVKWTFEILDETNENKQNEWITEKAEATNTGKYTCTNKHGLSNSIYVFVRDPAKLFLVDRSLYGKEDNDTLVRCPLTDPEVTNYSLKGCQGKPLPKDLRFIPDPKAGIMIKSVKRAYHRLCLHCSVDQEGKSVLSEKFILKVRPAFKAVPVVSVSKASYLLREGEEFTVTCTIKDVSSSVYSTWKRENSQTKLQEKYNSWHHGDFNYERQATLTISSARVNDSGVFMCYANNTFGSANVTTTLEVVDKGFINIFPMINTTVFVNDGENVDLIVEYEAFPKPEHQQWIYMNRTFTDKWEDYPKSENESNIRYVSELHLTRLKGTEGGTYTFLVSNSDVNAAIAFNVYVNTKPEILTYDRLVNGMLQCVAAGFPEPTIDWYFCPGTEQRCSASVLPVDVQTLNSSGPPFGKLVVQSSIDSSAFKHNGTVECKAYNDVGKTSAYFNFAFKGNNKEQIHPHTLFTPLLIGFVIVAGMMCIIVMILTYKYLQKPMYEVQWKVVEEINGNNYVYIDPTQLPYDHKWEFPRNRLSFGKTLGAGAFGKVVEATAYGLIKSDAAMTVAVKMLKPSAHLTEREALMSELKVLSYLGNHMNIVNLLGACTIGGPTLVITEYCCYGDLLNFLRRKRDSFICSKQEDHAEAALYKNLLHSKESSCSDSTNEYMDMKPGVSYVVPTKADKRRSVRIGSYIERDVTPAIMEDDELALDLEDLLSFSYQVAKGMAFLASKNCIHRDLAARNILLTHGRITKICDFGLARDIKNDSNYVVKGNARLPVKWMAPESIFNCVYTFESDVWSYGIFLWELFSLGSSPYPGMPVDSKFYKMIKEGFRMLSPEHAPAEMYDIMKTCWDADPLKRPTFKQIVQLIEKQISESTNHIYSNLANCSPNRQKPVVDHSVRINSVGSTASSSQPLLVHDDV
T7 sequence (O14757 whole entry, species assumed): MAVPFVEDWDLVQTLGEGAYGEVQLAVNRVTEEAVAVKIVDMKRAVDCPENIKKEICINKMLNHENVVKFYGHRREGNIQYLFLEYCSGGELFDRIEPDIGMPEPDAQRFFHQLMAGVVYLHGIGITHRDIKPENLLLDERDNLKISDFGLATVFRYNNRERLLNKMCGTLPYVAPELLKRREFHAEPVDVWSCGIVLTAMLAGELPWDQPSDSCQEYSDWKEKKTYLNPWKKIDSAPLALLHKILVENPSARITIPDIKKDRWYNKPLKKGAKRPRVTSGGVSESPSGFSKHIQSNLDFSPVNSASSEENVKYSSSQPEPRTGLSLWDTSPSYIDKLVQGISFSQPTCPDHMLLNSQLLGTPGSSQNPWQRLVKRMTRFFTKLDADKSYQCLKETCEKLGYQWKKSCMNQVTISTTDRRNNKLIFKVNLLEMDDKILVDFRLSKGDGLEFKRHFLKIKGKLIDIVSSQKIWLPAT
T16 sequence (P31751 whole entry, species assumed): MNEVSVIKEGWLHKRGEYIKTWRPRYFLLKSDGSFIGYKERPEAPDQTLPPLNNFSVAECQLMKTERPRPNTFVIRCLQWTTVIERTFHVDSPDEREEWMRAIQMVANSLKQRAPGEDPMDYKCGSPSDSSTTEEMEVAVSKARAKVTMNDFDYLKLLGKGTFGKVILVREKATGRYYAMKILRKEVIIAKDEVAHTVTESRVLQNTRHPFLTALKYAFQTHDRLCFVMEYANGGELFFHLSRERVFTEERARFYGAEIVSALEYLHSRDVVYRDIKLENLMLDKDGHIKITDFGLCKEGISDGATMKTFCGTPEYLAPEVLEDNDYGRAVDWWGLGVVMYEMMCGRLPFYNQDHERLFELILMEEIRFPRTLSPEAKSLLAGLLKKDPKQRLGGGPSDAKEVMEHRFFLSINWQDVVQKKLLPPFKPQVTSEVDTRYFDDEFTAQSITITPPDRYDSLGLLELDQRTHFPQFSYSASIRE
T3 sequence (P27361 whole entry): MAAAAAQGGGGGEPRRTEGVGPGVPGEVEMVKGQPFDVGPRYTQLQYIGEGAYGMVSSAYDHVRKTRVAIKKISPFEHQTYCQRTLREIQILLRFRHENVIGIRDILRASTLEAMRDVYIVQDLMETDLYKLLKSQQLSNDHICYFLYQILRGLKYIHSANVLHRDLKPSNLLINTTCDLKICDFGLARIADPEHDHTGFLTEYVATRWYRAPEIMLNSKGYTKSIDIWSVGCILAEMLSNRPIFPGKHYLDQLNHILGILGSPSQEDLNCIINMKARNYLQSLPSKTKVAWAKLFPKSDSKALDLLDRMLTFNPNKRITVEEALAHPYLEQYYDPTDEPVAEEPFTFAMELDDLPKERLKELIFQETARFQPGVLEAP

## Nc1nccc(Oc2ccc3c(C(=O)Nc4cccc(C(F)(F)F)c4)cccc3n2)n1 [Compound 2-2]
KDR (VEGFR2); 5 µM
  Average Inhibition Rate (%) KDR: 100.1%
KDR (VEGFR2)
  inhibition at 5 µM: 100%
KIT
  inhibition at 5 µM: ~92%
MAPK3
  inhibition at 5 µM: 1.12%
PKC-α
  inhibition at 5 µM: 2.63%
JAK2
  inhibition at 5 µM: 7.83%
VEGFR2 (KDR)
  inhibition activity on KDR (in words): good inhibition activity
  IC50: 0.00731 µM
  Hill KDR: 1.175
VEGFR2 (KDR); concentration 0.0002823 (uM)
  Inhibition Rate on KDR (%): 5.09%
VEGFR2 (KDR); concentration 0.0008468 (uM)
  Inhibition Rate on KDR (%): 11.82%
VEGFR2 (KDR); concentration 0.0025403 (uM)
  Inhibition Rate on KDR (%): 25.59%
VEGFR2 (KDR); concentration 0.0076208 (uM)
  Inhibition Rate on KDR (%): 49.36%
VEGFR2 (KDR); concentration 0.0228624 (uM)
  Inhibition Rate on KDR (%): 78.25%
VEGFR2 (KDR); concentration 0.0685871 (uM)
  Inhibition Rate on KDR (%): 90.14%
VEGFR2 (KDR); concentration 0.2057613 (uM)
  Inhibition Rate on KDR (%): 92.95%
VEGFR2 (KDR); concentration 0.6172840 (uM)
  Inhibition Rate on KDR (%): 94.82%
VEGFR2 (KDR); concentration 1.8518519 (uM)
  Inhibition Rate on KDR (%): 97.30%
VEGFR2 (KDR); concentration 5.5555556 (uM)
  Inhibition Rate on KDR (%): 96.50%
VEGFR2 (KDR); concentration 16.6666667 (uM)
  Inhibition Rate on KDR (%): 94.47%
VEGFR2 (KDR); concentration 50 (uM)
  Inhibition Rate on KDR (%): 95.99%
CHEK1
  inhibition at 5 µM: 0.695%
DMPK
  inhibition at 5 µM: 4.5%
MEK1
  inhibition at 5 µM: 4.96%
MET
  inhibition at 5 µM: 2.46%
SRC
  inhibition at 5 µM: ~65%
AURORA-B
  inhibition at 5 µM: 13.6%
SYK
  inhibition at 5 µM: -5.87%
CDK2
  inhibition at 5 µM: 2.02%
ROCK1
  inhibition at 5 µM: 1.39%
EGFR
  inhibition at 5 µM: -0.625%
Corneal angiogenesis
  effect on corneal angiogenesis (in words, FIG. 12): obviously reduces corneal angiogenesis
[1]
  inhibition at 0.1 µM: 50%
  inhibition at 1 µM: 100%
  inhibition at 5 µM: 100%
  inhibition at 10 µM: 100%
  inhibition at 20 µM: 100%
  inhibition at 40 µM: 100%
  inhibition at 100 µM: 100%
  inhibition effect on the vessel development of the danio rerio (in words): have inhibition effect on the vessel development of the danio rerio
AKT2
  inhibition at 5 µM: -1.2%
PDGFR-β
  inhibition at 5 µM: ~97%
BRAF
  inhibition at 5 µM: 37.4%

## Nc1cc(Oc2ccc3c(C(=O)Nc4cccc(C(F)(F)F)c4)cccc3n2)ncn1 [Compound 2-1]
KDR (VEGFR2)
  inhibition at 5 µM: > 97%
KIT
  inhibition at 5 µM: ~72%
MAPK3
  inhibition at 5 µM: 1.44%
PKC-α
  inhibition at 5 µM: -0.01%
JAK2
  inhibition at 5 µM: ~21%
VEGFR2 (KDR)
  inhibition activity on KDR (in words): good inhibition activity
  IC50: 0.0277 µM
  Hill KDR: 1.066
VEGFR2 (KDR); concentration 0.0002823 (uM)
  Inhibition Rate on KDR (%): 2.75%
VEGFR2 (KDR); concentration 0.0008468 (uM)
  Inhibition Rate on KDR (%): 0.61%
VEGFR2 (KDR); concentration 0.0025403 (uM)
  Inhibition Rate on KDR (%): 7.27%
VEGFR2 (KDR); concentration 0.0076208 (uM)
  Inhibition Rate on KDR (%): 20.59%
VEGFR2 (KDR); concentration 0.0228624 (uM)
  Inhibition Rate on KDR (%): 45.65%
VEGFR2 (KDR); concentration 0.0685871 (uM)
  Inhibition Rate on KDR (%): 71.24%
VEGFR2 (KDR); concentration 0.2057613 (uM)
  Inhibition Rate on KDR (%): 84.37%
VEGFR2 (KDR); concentration 0.6172840 (uM)
  Inhibition Rate on KDR (%): 91.13%
VEGFR2 (KDR); concentration 1.8518519 (uM)
  Inhibition Rate on KDR (%): 94.18%
VEGFR2 (KDR); concentration 5.5555556 (uM)
  Inhibition Rate on KDR (%): 95.30%
VEGFR2 (KDR); concentration 16.6666667 (uM)
  Inhibition Rate on KDR (%): 94.60%
VEGFR2 (KDR); concentration 50 (uM)
  Inhibition Rate on KDR (%): 94.91%
CHEK1
  inhibition at 5 µM: 2.54%
DMPK
  inhibition at 5 µM: 1.53%
MEK1
  inhibition at 5 µM: 1.06%
MET
  inhibition at 5 µM: 3.83%
SRC
  inhibition at 5 µM: ~21%
AURORA-B
  inhibition at 5 µM: ~31%
SYK
  inhibition at 5 µM: -2.15%
CDK2
  inhibition at 5 µM: 3.75%
ROCK1
  inhibition at 5 µM: 2.63%
EGFR
  inhibition at 5 µM: 5.35%
Corneal angiogenesis
  effect on corneal angiogenesis (in words, FIG. 12): obviously reduces corneal angiogenesis
[1]
  inhibition at 0.1 µM: 10%
  inhibition at 1 µM: 50%
  inhibition at 5 µM: 100%
  inhibition at 10 µM: 100%
  inhibition at 20 µM: 100%
  inhibition at 40 µM: 100%
  inhibition at 100 µM: 100%
  inhibition effect on the vessel development of the danio rerio (in words): have inhibition effect on the vessel development of the danio rerio
AKT2
  inhibition at 5 µM: 1.35%
PDGFR-β
  inhibition at 5 µM: ~71%
BRAF
  inhibition at 5 µM: 4.11%

From US9540381B2, “Anti-angiogenesis compound, intermediate and use thereof” (Guangzhou KangRui Biological Pharmaceutical Technology Co., …, priority 2013, dated 2017)
